Literature values as cited in patent US5731007A, “Pharmaceutical composition for skin diseases” (Yungjin Pharmaceutical Co., Ltd., priority 1994, dated 1998).
“Also recorded” adds a separate entry of the source. Structures can show the parent of a compound that is named as a salt.

System: gram positive and negative bacteria
Conditions: including strains resistant to antibiotics such as kanamycin

Structure (SMILES): CNC[C@@H]1CC[C@@H](N)[C@@H](O[C@H]2[C@H](O)[C@@H](O[C@H]3OC[C@](C)(O)[C@H](NC)[C@H]3O)[C@H](N)C[C@@H]2N)O1 [Micronomicin sulfate, micronomicin sulfate]
- antibacterial activity: wide antibacterial spectrum against both gram positive and negative bacteria; also recorded: effective bacteriocidal activity against infections by strains resistant to various antibiotics such as kanamycin
